Data reported in PubChem BioAssay AID2060611 (Molecular Pharmacology Branch, DTP, NCI, 2025).
Where “and” joins values, the source holds several entries; their conditions need not be identical. Equal values may be shown once.

Test system: 628569-122-R-J1-PDC complex spheroid viability
Assay: Anticancer human tumor 628569-122-R-J1-PDC patient-derived head and neck squamous carcinoma cell line growth inhibition [CLK]
Conditions: for viability, T/C: stronger effect = lower value
Excerpt: A high-throughput screen of multi-cell type tumor spheroids was designed to identify active combinations of […] and targeted small molecules. Complex spheroids include a stromal component modeled by human endothelial cells (HUVEC) and fibroblasts modeled by human mesenchymal stem cells (MSCs). The concentration ranges selected for each drug and investigational agent were based upon clinically achievable concentrations if the clinical Cmax of the agent was known.
Compounds. The drugs and investigational agents: cirtuvivint (SM08502; NSC835563), CC-671 (NSC850746), vemurafenib (NSC761431), tapotoclax (NSC804041), sotorasib (NSC818433), adagrasib (NSC831453), MRTX-1133 (NSC836407), BAY2416964 (NSC825713), copanlisib (NSC816437), inavolisib (NSC800729), abemaciclib (NSC768073), osimertinib (NSC779217), entinostat (NSC756642), eltanexor (KPT-8602, NSC794443), venetoclax (NSC766270), ceralasertib (NSC777638), bortezomib (NSC756655), olaparib (NSC753686), talazoparib (NSC767125), alisertib (NSC759677), peposertib (NSC802822), gemcitabine (NSC613327), 5-fluorouracil (NSC19893), SN-38 (NSC673596), oxaliplatin (NSC266046), paclitaxel (NSC125973), and doxorubicin (NSC123127), were obtained from the National Cancer Institute (NCI) Developmental Therapeutics Program Chemical Repository. The FDA-approved anticancer drug set is available from the Developmental Therapeutics Program at https://dtp.cancer.gov/organization/dscb/obtaining/available plates.htm. […] The stock solutions were prepared in dimethyl sulfoxide (DMSO, Sigma-Aldrich, St. Louis, MO, cat. D2650), except for the platinum complexes which were prepared in saline (Quality Biological, Gaithersburg, MD, cat. 114-055-101), at 800-fold the tested concentration and stored at -70 degrees C prior to their use. All drugs and investigational agents were tested over a range starting from a high concentration at or near the clinical Cmax and decreasing in half-log increments. If the clinical Cmax for an agent had not been determined, the highest concentration tested was 10 microM.
Cell Culture. All cells were maintained in an incubator at 37 degrees C and 5% CO2 with 95% humidity. The PDC lines were cultured according to standard operating procedures established by the NCI PDMR. Briefly, all PDCs were thawed and cultured in Matrigel-coated flasks prepared with a working solution of 1X Ham's F-12 nutrient mix, without supplementation (Invitrogen, Waltham, MA, cat. 11765054), 100 U/mL penicillin-streptomycin (Invitrogen, cat. 15140122), and 2.5% Matrigel (Corning Inc., Corning, NY, cat. 354248) for the first three passages. The 947758-054-R-J2-PDC line was cultured in 6B/Colon 1A media, which includes advanced DMEM/F-12 (Thermo Fisher Scientific, cat. 12634028), 10 mM HEPES (Thermo Fisher Scientific, cat. 15630080), 1X GlutaMAX supplement (Thermo Fisher Scientific, cat. 35050061), 0.1 mg/mL primocin (InvivoGen, cat. ant-pm-2), 10% defined fetal bovine serum, heat inactivated (HyClone Laboratories Inc., cat. SH30070.03HI), 1.25 mM N-Acetyl-L-cysteine (Sigma-Aldrich, cat. A9165), 10 mM nicotinamide (Sigma-Aldrich, cat. N0636), 1X B-27 supplement (Thermo Fisher Scientific, cat. 17504044), 1X N-2 supplement (Thermo Fisher Scientific, cat. 17502048), and 10 microM Y-27632 dihydrochloride (Tocris Bioscience, cat. 1254). The 876862-298-R-J1-PDC was cultured in 6E media, which includes all 6B/Colon 1A media components plus 50% L-WRN conditioned media (ATCC, cat. CRL-3276), 50 ng/mL recombinant human EGF recombinant protein (hEGF; Thermo Fisher Scientific, cat. PHG0311), 10 ng/mL recombinant human fibroblast growth factor 10 (hGFG-10; PeproTech, cat. 100-26), 1 ng/mL recombinant human fibroblast growth factor 2 (hFGF-2; PeproTech, cat. 100-18B), and 1 µM prostaglandin E2 (PGE2; Tocris, cat. 2296). The 227483-062-R1-J1-PDC line was cultured in Panc media, containing all 6E components except hFGF-2, with the addition of 500 nM SB-431542 (Selleckchem, cat. S1067) and 10 nM gastrin (Tocris, cat. 3006). […]
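Also: spheroids exposed to agents for seven days before readout.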
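For viability, T/C in this document: 100% = DMSO vehicle control viability.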

Compound: C=CC(=O)Nc1cc(Nc2nccc(-c3cn(C)c4ccccc34)n2)c(OC)cc1N(C)CCN(C)C + CNC(=O)c1ccc(Nc2nc(OC3CCCC3)c3c(-c4ccc5nc(C)oc5c4)c[nH]c3n2)c(OC)c1
- IC50 (curve of first compound, second compound 0.0316 µM): > 300 nM
- IC50 (curve of first compound, second compound 0.1 µM): 26.9 nM
- IC50 (curve of first compound, second compound 0.316 µM): 17.9 nM
- IC50 (curve of first compound, second compound 1 µM): < 0.949 nM
- IC50 (curve of first compound, second compound 3.16 µM): < 0.949 nM
- IC50 (curve of first compound, second compound 10 µM): < 0.949 nM
- viability, T/C (second compound 0.0316 µM, first compound 0.000949 µM): 81.8%
- viability, T/C (second compound 0.0316 µM, first compound 0.003 µM): 98.1%
- viability, T/C (second compound 0.0316 µM, first compound 0.00949 µM): 86.1%
- viability, T/C (second compound 0.0316 µM, first compound 0.03 µM): 84.2%
- viability, T/C (second compound 0.0316 µM, first compound 0.0949 µM): 68.1%
- viability, T/C (second compound 0.0316 µM, first compound 0.3 µM): 53.7%
- viability, T/C (second compound 0.1 µM, first compound 0.000949 µM): 63%
- viability, T/C (second compound 0.1 µM, first compound 0.003 µM): 56.2%
- viability, T/C (second compound 0.1 µM, first compound 0.00949 µM): 52.4%
- viability, T/C (second compound 0.1 µM, first compound 0.03 µM): 49%
- viability, T/C (second compound 0.1 µM, first compound 0.0949 µM): 49.6%
- viability, T/C (second compound 0.1 µM, first compound 0.3 µM): 37.6%
- viability, T/C (second compound 0.316 µM, first compound 0.000949 µM): 50.7%
- viability, T/C (second compound 0.316 µM, first compound 0.003 µM): 55.7%
- viability, T/C (second compound 0.316 µM, first compound 0.00949 µM): 49%
- viability, T/C (second compound 0.316 µM, first compound 0.03 µM): 49.5%
- viability, T/C (second compound 0.316 µM, first compound 0.0949 µM): 41.5%
- viability, T/C (second compound 0.316 µM, first compound 0.3 µM): 23.9%
- viability, T/C (second compound 1 µM, first compound 0.000949 µM): 49.1%
- viability, T/C (second compound 1 µM, first compound 0.003 µM): 51.4%
- viability, T/C (second compound 1 µM, first compound 0.00949 µM): 38.8%
- viability, T/C (second compound 1 µM, first compound 0.03 µM): 42.1%
- viability, T/C (second compound 1 µM, first compound 0.0949 µM): 36.6%
- viability, T/C (second compound 1 µM, first compound 0.3 µM): 18.9%
- viability, T/C (second compound 3.16 µM, first compound 0.000949 µM): 43.1%
- viability, T/C (second compound 3.16 µM, first compound 0.003 µM): 48.9%
- viability, T/C (second compound 3.16 µM, first compound 0.00949 µM): 39.3%
- viability, T/C (second compound 3.16 µM, first compound 0.03 µM): 44.2%
- viability, T/C (second compound 3.16 µM, first compound 0.0949 µM): 23.7%
- viability, T/C (second compound 3.16 µM, first compound 0.3 µM): 13.7%
- viability, T/C (second compound 10 µM, first compound 0.000949 µM): 46.5%
- viability, T/C (second compound 10 µM, first compound 0.003 µM): 40.6%
- viability, T/C (second compound 10 µM, first compound 0.00949 µM): 46.8%
- viability, T/C (second compound 10 µM, first compound 0.03 µM): 45%
- viability, T/C (second compound 10 µM, first compound 0.0949 µM): 25.8%
- viability, T/C (second compound 10 µM, first compound 0.3 µM): 12%

Compound: Nc1ccn(C2OC(CO)C(O)C2(F)F)c(=O)n1 (centres undefined)
- viability, T/C (compound 0.0316 µM): 56.4% and 64.8%
- viability, T/C (compound 0.1 µM): 48.9% and 39.6%
- viability, T/C (compound 0.316 µM): 59% and 51.7%
- viability, T/C (compound 1 µM): 42.4% and 32.9%
- viability, T/C (compound 3.16 µM): 49.2% and 40.4%
- viability, T/C (compound 10 µM): 45.5% and 42%
- IC50 (curve of compound): 626 nM and 65.4 nM
